The values that follow come from ChEMBL document CHEMBL4393743, “Anti-tumor activity evaluation of novel tubulin and HDAC dual-targeting inhibitors” (Bioorg Med Chem Lett, 2019).

The test system of assay [1] is A549. In words: Induction of apoptosis in human A549 cells assessed as live cells at 0.1 uM incubated for 72 hrs by Annexin V-FITC/propidium iodide-staining based flow cytometric analysis (reference value: 89.8%). The class given is functional.
For assay [2], the system named is A549. In words: Induction of cell cycle arrest in human A549 cells assessed as accumulation at S phase at 0.3 uM incubated for 36 hrs by propidium iodide staining based flow cytometry (reference value: 16.66%). The class given is functional. Background: A flow cytometer gives signals particle by particle.
A further assay concerns MGC-803. In words: Antiproliferative activity against human MGC803 cells assessed as cell growth inhibition incubated for 72 hrs by MTT assay. It is filed as functional, cell-based. As to conditions: MGC-803, 72 h. For orientation: Formazan colour is commonly taken as a measure of viable cells.
In assay [3] the test system is A549. In words: Induction of cell cycle arrest in human A549 cells assessed as accumulation at S phase at 0.1 uM incubated for 36 hrs by propidium iodide staining based flow cytometry (reference value: 16.66%). It is filed as functional.
For another assay, the system named is NCI-H226. As to the kind of experiment: Antiproliferative activity against human NCI-H226 cells assessed as cell growth inhibition incubated for 72 hrs by MTT assay. The class given is functional, cell-based. As to conditions: NCI-H226, 72 h.
In assay [4] the test system is A549. In words: Induction of apoptosis in human A549 cells incubated for 72 hrs by Annexin V-FITC/propidium iodide-staining based flow cytometric analysis. It is filed as functional, cell-based.
In assay [5] the test system is A549. As to the kind of experiment: Induction of cell cycle arrest in human A549 cells assessed as accumulation at G2/M phase at 3 uM incubated for 36 hrs by propidium iodide staining based flow cytometry (reference value: 10.83%). It is filed as functional.
The next assay has as its target Histone deacetylase 1 (Homo sapiens, UniProt Q13547). As to the kind of experiment: Inhibition of HDAC1 (unknown origin) using Boc-Lys(Ac)-AMC as substrate incubated for 60 mins by fluorescence assay.
Another assay deals with NCI-H460. In words: Antiproliferative activity against human NCI-H460 cells assessed as cell growth inhibition incubated for 72 hrs by MTT assay. It is filed as functional, cell-based. The following applies: NCI-H460, 72 h.
The subject of assay [6] is A549. In words: Induction of apoptosis in human A549 cells assessed as early apoptotic cells at 0.1 uM incubated for 72 hrs by Annexin V-FITC/propidium iodide-staining based flow cytometric analysis (reference value: 1.8%). It is filed as functional.
Assay [7] relates to A549. As to the kind of experiment: Antimigratory activity in human A549 cells at 5 to 10 uM incubated for 12 hrs in presence of mitomycin by inverted microscopic-based wound healing assay. The class given is functional, cell-based.
Assay [8] concerns A549. As to the kind of experiment: Induction of cell cycle arrest in human A549 cells assessed as accumulation at S phase at 10 uM incubated for 36 hrs by propidium iodide staining based flow cytometry (reference value: 16.66%). It is filed as functional.
The target of assay [9] is T1, Protein deacetylase HDAC6 (Homo sapiens, UniProt Q9UBN7).
T1 sequence (Q9UBN7 whole entry): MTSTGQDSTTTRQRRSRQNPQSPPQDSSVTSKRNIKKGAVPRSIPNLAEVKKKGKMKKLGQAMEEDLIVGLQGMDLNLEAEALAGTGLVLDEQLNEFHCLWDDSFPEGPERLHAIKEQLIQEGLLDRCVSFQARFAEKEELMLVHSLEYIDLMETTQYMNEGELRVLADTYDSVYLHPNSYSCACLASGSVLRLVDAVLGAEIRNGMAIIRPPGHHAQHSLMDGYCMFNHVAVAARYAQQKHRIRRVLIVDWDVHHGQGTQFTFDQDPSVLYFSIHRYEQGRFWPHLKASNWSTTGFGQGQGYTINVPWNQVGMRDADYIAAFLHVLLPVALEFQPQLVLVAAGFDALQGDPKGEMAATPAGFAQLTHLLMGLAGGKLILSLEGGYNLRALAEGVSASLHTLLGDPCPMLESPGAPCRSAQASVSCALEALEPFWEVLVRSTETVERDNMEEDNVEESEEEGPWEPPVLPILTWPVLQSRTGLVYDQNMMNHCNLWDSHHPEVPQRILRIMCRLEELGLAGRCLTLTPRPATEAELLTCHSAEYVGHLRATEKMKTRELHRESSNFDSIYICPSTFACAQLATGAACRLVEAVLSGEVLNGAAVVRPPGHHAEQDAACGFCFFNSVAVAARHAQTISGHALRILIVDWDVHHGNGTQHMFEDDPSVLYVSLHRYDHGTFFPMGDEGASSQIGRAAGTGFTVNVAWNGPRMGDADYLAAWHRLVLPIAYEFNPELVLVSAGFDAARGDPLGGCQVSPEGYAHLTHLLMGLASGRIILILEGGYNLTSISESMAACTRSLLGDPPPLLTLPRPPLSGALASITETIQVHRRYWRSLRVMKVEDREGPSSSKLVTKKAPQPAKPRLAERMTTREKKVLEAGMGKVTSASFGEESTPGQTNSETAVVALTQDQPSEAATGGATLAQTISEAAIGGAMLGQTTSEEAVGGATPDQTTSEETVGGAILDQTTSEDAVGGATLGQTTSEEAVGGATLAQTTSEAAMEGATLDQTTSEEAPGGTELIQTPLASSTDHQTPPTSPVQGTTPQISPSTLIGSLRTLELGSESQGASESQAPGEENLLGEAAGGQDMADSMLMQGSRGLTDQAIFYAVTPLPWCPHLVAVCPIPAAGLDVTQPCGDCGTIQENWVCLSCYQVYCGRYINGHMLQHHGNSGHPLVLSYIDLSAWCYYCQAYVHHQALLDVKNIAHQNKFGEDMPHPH
In words: Inhibition of HDAC6 (unknown origin) using Boc-Lys(Ac)-AMC as substrate incubated for 60 mins by fluorescence assay.

Assay [10] concerns A549. As to the kind of experiment: Induction of apoptosis in human A549 cells assessed as late apoptotic cells at 1 uM incubated for 72 hrs by Annexin V-FITC/propidium iodide-staining based flow cytometric analysis (reference value: 5.69%). The class given is functional.
In assay [11] the test system is A549. In words: Induction of cell cycle arrest in human A549 cells assessed as accumulation at S phase at 1 uM incubated for 36 hrs by propidium iodide staining based flow cytometry (reference value: 16.66%). It is filed as functional.
Assay [12] relates to A549. In words: Induction of apoptosis in human A549 cells assessed as necrotic cells at 0.1 uM incubated for 72 hrs by Annexin V-FITC/propidium iodide-staining based flow cytometric analysis (reference value: 2.76%). The class given is functional.
The subject of assay [13] is A549. In words: Induction of cell cycle arrest in human A549 cells assessed as accumulation at G0/G1 phase at 1 uM incubated for 36 hrs by propidium iodide staining based flow cytometry (reference value: 72.51%). It is filed as functional.
The subject of assay [14] is A549. As to the kind of experiment: Antiproliferative activity against human A549 cells assessed as cell growth inhibition incubated for 72 hrs by MTT assay. The class given is functional, cell-based. The following applies: A549, 72 h.
In a further assay the test system is BGC-823. In words: Antiproliferative activity against human BGC823 cells assessed as cell growth inhibition incubated for 72 hrs by MTT assay. The following applies: BGC-823, 72 h. The class given is functional, cell-based.
The subject of assay [15] is A549. In words: Induction of cell cycle arrest in human A549 cells assessed as accumulation at G2/M phase at 0.1 uM incubated for 36 hrs by propidium iodide staining based flow cytometry (reference value: 10.83%). It is filed as functional.
For assay [16], the system named is A549. As to the kind of experiment: Induction of apoptosis in human A549 cells assessed as early apoptotic cells at 10 uM incubated for 72 hrs by Annexin V-FITC/propidium iodide-staining based flow cytometric analysis (reference value: 1.8%). It is filed as functional.
Assay [17] deals with A549. In words: Induction of cell cycle arrest in human A549 cells assessed as accumulation at G2/M phase at 10 uM incubated for 36 hrs by propidium iodide staining based flow cytometry (reference value: 10.83%). It is filed as functional.

Active and inactive are the calls of the source. No cut-off for these calls is given here.

Histone deacetylase 1, sequence (Q13547 whole entry): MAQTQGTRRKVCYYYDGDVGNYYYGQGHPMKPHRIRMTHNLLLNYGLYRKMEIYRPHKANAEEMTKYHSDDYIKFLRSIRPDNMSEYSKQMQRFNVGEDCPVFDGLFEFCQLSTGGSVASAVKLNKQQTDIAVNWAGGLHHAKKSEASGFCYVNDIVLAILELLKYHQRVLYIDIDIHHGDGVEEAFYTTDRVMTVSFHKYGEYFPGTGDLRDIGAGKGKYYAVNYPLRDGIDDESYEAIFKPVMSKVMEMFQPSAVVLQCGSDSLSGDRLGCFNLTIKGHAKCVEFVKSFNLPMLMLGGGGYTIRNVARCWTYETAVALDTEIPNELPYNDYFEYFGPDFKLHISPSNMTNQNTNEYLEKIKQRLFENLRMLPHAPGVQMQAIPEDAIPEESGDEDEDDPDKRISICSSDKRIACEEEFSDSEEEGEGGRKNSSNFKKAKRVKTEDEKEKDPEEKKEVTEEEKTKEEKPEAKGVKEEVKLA

Take `COc1ccc(/C=C(\C)C(=O)c2cc(OC)c(OC)c(OC)c2)cc1OCCCC(=O)NO`: the Activity was 84.8% in the assay on A549 [1]; 39.96% in the assay on A549 [2]; 22.09% in the assay with A549 [3]; “Dose-dependent effect” in the assay on A549 [4]; 80.69% with A549 [5]; 4.25% with A549 [6]. The Activity with A549 [8] is listed as 16.55%; in the assay on A549 [10], 26.4%; with A549 [11], 20.54%; with A549 [12] it was 1.51%; with A549 [13], 16.57%; with A549 [15], 9.47%. The Activity in the assay on A549 [16] turned out to be 8.81%; with A549 [17], 81.88%. Moreover, the half-inhibitory concentration (IC50) in the assay with MGC-803 came to 3660 nM; in the assay on NCI-H226 it was 7540 nM; at Histone deacetylase 1, 996 nM; in the assay with NCI-H460, 2950 nM; in [9] it was 470 nM; in the assay with A549 [14] it was 550 nM. The IC50 in the assay on BGC-823 amounted to 2400 nM. In the assay with A549 [7], the outcome was Active.

A word on the IC50: it is the midpoint of a concentration-inhibition curve.
